Patent publication US20110195433A1 (priority 2007, published 2011)
Entries after “also recorded” stand apart in the source; their conditions may differ. Where a name gives a salt, the structure may show the parent alone.

Experiments:
animals = test: precipitated withdrawal jumping in animals; type: in vivo; details: compared with naloxone
mouse DOR [1] = molecular target: T1, mouse DOR (Mus musculus, UniProt P32300)
mouse DOR [2] = molecular target: T1, mouse DOR; test: basal [35S]GTPγS binding in DOR cell membranes with or without agonist pretreatment; type: biochemical; parameters: expressed in transfected cells; membranes
human MOR [3] = molecular target: T2, human MOR (Homo sapiens, UniProt P35372); type: biochemical; parameters: expressed in transfected cells; membranes
human MOR [4] = molecular target: T2, human MOR
human KOR = molecular target: T3, human KOR (Homo sapiens, UniProt P41145); test: biochemical; details: for Emax: read-out: Emax of decrease of basal GTPγS binding
T3 construct: expressed in transfected cells; membranes
T3 sequence (P41145 whole entry): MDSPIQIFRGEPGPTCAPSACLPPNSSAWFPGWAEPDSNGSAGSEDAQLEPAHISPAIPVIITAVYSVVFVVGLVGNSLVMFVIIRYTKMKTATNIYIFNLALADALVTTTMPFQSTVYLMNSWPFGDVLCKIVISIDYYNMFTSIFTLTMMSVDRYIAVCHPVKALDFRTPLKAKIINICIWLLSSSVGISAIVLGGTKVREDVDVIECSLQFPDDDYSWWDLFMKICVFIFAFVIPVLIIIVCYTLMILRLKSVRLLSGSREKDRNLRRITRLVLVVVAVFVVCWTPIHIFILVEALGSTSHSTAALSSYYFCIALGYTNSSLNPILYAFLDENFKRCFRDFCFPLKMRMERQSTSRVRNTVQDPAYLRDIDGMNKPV

T2 sequence (P35372 whole entry): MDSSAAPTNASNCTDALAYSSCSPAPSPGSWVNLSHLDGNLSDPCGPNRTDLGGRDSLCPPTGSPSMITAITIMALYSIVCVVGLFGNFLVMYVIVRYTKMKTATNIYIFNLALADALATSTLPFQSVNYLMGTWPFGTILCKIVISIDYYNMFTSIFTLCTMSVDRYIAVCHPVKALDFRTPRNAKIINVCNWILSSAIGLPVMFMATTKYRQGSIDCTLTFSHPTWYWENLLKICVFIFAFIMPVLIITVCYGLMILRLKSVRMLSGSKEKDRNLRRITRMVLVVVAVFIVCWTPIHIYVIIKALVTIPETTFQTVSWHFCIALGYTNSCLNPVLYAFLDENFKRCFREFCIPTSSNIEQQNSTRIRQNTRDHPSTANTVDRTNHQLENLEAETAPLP
T1 sequence (P32300 whole entry): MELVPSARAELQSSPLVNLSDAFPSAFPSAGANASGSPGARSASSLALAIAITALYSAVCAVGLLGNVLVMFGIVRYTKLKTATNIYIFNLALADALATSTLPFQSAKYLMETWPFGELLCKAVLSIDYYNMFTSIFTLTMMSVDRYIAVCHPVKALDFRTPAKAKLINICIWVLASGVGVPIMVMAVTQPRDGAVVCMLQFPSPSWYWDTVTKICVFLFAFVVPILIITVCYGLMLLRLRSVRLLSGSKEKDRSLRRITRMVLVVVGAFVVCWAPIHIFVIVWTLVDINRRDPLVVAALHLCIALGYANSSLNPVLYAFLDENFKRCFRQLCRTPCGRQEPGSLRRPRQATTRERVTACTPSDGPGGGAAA

Compound: Oc1ccc2c3c1O[C@H]1[C@H](O)CC[C@@]4(O)[C@@H](C2)N(CC2CC2)CC[C@]314 [6β-naltrexol]
- precipitated withdrawal jumping (animals): less withdrawal jumping than naloxone
- antagonistic property against agonist-stimulated [35S]GTPγS binding (mouse DOR [1]; 30 nM DPDPE, DOR membranes): full antagonists
- inhibition of the inverse agonist effect of naloxone (mouse DOR [2]; DPDPE-pretreated DOR membranes): inhibited
- pharmacological property at DOR (mouse DOR [2]; after DPDPE or morphine pretreatment): neutral antagonist property; also recorded: remained neutral

Compound: O=C1C(=Cc2ccccc2)C[C@@]2(O)[C@H]3Cc4ccc(O)c5c4[C@@]2(CCN3CC2CC2)[C@H]1O5 [BNTX, 7-benzylidenenaltrexone]
- change of inverse agonist effects after pretreatment (human MOR [3]): increased
- shift of inverse agonist dose-response curve after pretreatment (human MOR [3]): shifted the dose-response curve of BNTX to the left

Compound: C[C@@H](NC(=O)[C@@H](N)Cc1ccc(O)cc1)C(=O)NCC(=O)N(C)[C@@H](Cc1ccccc1)C(=O)NCCO [DAMGO, [D-Ala2,N-Me-Phe4,Gly5-ol]-enkephalin]
- change of agonist Emax value after pretreatment (human MOR [4]): decreased

Compound: N=C(N)Nc1ccc2[nH]c3c(c2c1)CC1(O)C2Cc4ccc(O)c5c4C1(CCN2CC1CC1)C3O5 (stereo not drawn) [GNTI, 5′-guanidinyl-17-(cyclopropylmethyl)-6,7-dehydro-4,5α-epoxy-3,14-dihydroxy-6,7-2′3′-indolomorphinan dihydrochloride]
- EC50 of decrease of basal GTPγS binding (human KOR): femtomolar range
- change of inverse agonist effects after pretreatment (human KOR): increased
- pharmacological property at KOR (human KOR): inverse agonists
- Emax (human KOR): ~10%

Compound: Oc1ccc2c3c1O[C@H]1c4[nH]c5c(c4C[C@@]4(O)[C@@H](C2)N(CC2CC2)CC[C@]314)C[C@@]1(O)[C@H]2Cc3ccc(O)c4c3[C@@]1(CCN2CC1CC1)[C@H]5O4 [nor-BNI, nor-binaltorphimine]
- change of inverse agonist effects after pretreatment (human KOR): increased
- pharmacological property at KOR (human KOR): inverse agonists
- Emax (human KOR): ~10%

Compound: N,N-diallyl-Tyr-Aib-Aib-Phe-Leu-OH [ICI 174,864]
- change of inverse agonist effects after pretreatment (mouse DOR [2]; DPDPE pre-exposure, DOR): decreased
- change of inverse agonist Emax after pretreatment (mouse DOR [2]; morphine pretreatment, DOR): without affecting
- shift of inverse agonist dose-response curve after pretreatment (mouse DOR [2]; morphine pretreatment, DOR): shifted the dose-response curve for ICI 174,864 to the left

Compound: [D-Pen2,D-Pen5]-enkephalin [DPDPE]
- change of agonist Emax value after pretreatment (mouse DOR [1]): decreased
